Four compounds from patent US12115224B2, “Polypeptide conjugates for intracellular delivery of stapled peptides” (Ohio State Innovation Foundation, priority 2017, dated 2024) can be followed below.

Molecules are shown by their SMILES. Numbered stars: 1 amine (or outer) side, 2 acyl side, 3 side chain; on linkers, the order of the positions; unused ones are H or OH. Bridge positions count the residues as written; N and C are the ends. Square brackets hold non-standard residues; d marks the D form. Peptide text beside a SMILES is read from it. I, II: the chains in the order shown. * marks the point of attachment. X2 = NC(=O)[C@H](CCCCNC(=O)c1cc(C[*:1])cc(C[*:2])c1)NC(=O)COCCOCCN[*:3]; X1 = O=C1OC2(c3ccc(C(=O)*)cc31)c1ccc3cc(O)ccc3c1Oc1c2ccc2cc(O)ccc12; 2Nal = N[C@@H](Cc1ccc2ccccc2c1)C(=O)O; mXylylene = c1cc(C[*:1])cc(C[*:2])c1; hCys = N[C@@H](CCS)C(=O)O; AEEA = NCCOCCOCC(=O)O

This test addresses MDM2 (Homo sapiens, UniProt Q00987). As to the kind of experiment: Direct binding of FITC-labeled peptides to MDM2 (KD). The conditions noted are these: relative to the parent peptide.

Sequence of MDM2 (Q00987 17-125): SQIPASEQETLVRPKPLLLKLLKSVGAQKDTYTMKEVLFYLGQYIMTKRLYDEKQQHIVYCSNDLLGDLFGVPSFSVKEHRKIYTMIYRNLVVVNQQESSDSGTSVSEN

On to `CC(=O)N[C@@H](CC(C)C)C(=O)N[C@H](C(=O)N[C@@H](Cc1ccccc1)C(=O)N[C@H]1CCSCc2cccc(c2)CSCC[C@@H](C(=O)N[C@@H](CCC(N)=O)C(=O)N[C@@H](CC(C)C)C(=O)N[C@H](C(=O)N[C@@H](CO)C(=O)NCCOCCOCC(=O)N[C@@H](CCCCNC(=O)c2ccc3c(c2)C(=O)OC32c3ccc4cc(O)ccc4c3Oc3c2ccc2cc(O)ccc32)C(N)=O)[C@@H](C)O)NC(=O)[C@H](Cc2c[nH]c3ccccc23)NC(=O)[C@H](Cc2ccc(O)cc2)NC(=O)[C@H](Cc2c[nH]cn2)NC1=O)[C@@H](C)O` [Peptide 8, Ac-LTFhCHYWhCQLTS-miniPEG-K(NF)-NH2] (Ac-LTF[hCys]HYW[hCys]QLTS[AEEA]K(X1)-NH2; linker 4-8 via mXylylene), for which the “fold improvement of MDM2 binding affinity” value came out at 5 fold. In the case of `CC(=O)N[C@@H](CC(C)C)C(=O)N[C@H](C(=O)N[C@@H](Cc1ccccc1)C(=O)N[C@H]1CSCc2cc(cc(C(=O)NCCCC[C@H](NC(=O)COCCOCCNC(=O)CC[C@@H]3NC(=O)[C@@H](CCCNC(=N)N)NC(=O)[C@H](CCCNC(=N)N)NC(=O)[C@@H](CCCNC(=N)N)NC(=O)[C@H](CCCNC(=N)N)NC(=O)[C@H](Cc4ccc5ccccc5c4)NC(=O)[C@@H](Cc4ccccc4)NC3=O)C(N)=O)c2)CSC[C@@H](C(=O)N[C@@H](CCC(N)=O)C(=O)N[C@@H](CC(C)C)C(=O)N[C@H](C(=O)N[C@@H](CO)C(=O)NCCOCCOCC(=O)N[C@@H](CCCCNC(=O)c2ccc3c(c2)C(=O)OC32c3ccc4cc(O)ccc4c3Oc3c2ccc2cc(O)ccc32)C(N)=O)[C@@H](C)O)NC(=O)[C@H](Cc2c[nH]c3ccccc23)NC(=O)[C@H](Cc2ccc(O)cc2)NC(=O)[C@H](Cc2c[nH]cn2)NC1=O)[C@@H](C)O` [Peptide 7] (I: Ac-LTFCHYWCQLTS[AEEA]K(X1)-NH2 / II: cyclo([2Nal]R[dR]R[dR]E[dF]); linker I:4-I:8-II:6 via X2), the “fold decrease of MDM2 binding affinity” value is on record as roughly 2 fold.

As to `CC(=O)N[C@@H](CC(C)C)C(=O)N[C@H](C(=O)N[C@@H](Cc1ccccc1)C(=O)N[C@H]1CCSCc2cc(cc(C(=O)NCCCC[C@H](NC(=O)COCCOCCNC(=O)CC[C@@H]3NC(=O)[C@@H](CCCNC(=N)N)NC(=O)[C@H](CCCNC(=N)N)NC(=O)[C@@H](CCCNC(=N)N)NC(=O)[C@H](CCCNC(=N)N)NC(=O)[C@H](Cc4ccc5ccccc5c4)NC(=O)[C@@H](Cc4ccccc4)NC3=O)C(N)=O)c2)CSCC[C@@H](C(=O)N[C@@H](CCC(N)=O)C(=O)N[C@@H](CC(C)C)C(=O)N[C@H](C(=O)N[C@@H](CO)C(=O)NCCOCCOCC(=O)N[C@@H](CCCCNC(=O)c2ccc3c(c2)C(=O)OC32c3ccc4cc(O)ccc4c3Oc3c2ccc2cc(O)ccc32)C(N)=O)[C@@H](C)O)NC(=O)[C@H](Cc2c[nH]c3ccccc23)NC(=O)[C@H](Cc2ccc(O)cc2)NC(=O)[C@H](Cc2c[nH]cn2)NC1=O)[C@@H](C)O` [Peptide 9, Ac-LTFhCHYWhCQLTS-miniPEG-K(NF)-NH2] (I: Ac-LTF[hCys]HYW[hCys]QLTS[AEEA]K(X1)-NH2 / II: cyclo(R[dR]E[dF][2Nal]R[dR]); linker I:4-I:8-II:3 via X2), the “fold decrease of MDM2 binding affinity” value was roughly 8 fold.

For the compound `CC(=O)N[C@@H](CCC(=O)O)C(=O)N[C@H](C(=O)N[C@@H](Cc1ccccc1)C(=O)N[C@H]1CSCc2cc(cc(C(=O)NCCCC[C@H](NC(=O)COCCOCCNC(=O)CC[C@@H]3NC(=O)[C@@H](CCCNC(=N)N)NC(=O)[C@H](CCCNC(=N)N)NC(=O)[C@@H](CCCNC(=N)N)NC(=O)[C@H](CCCNC(=N)N)NC(=O)[C@H](Cc4ccc5ccccc5c4)NC(=O)[C@@H](Cc4ccccc4)NC3=O)C(N)=O)c2)CSC[C@@H](C(=O)N[C@@H](CCC(N)=O)C(=O)N[C@@H](CC(C)C)C(=O)N[C@H](C(=O)N[C@@H](CO)C(=O)NCCOCCOCC(=O)N[C@@H](CCCCNC(=O)c2ccc3c(c2)C(=O)OC32c3ccc4cc(O)ccc4c3Oc3c2ccc2cc(O)ccc32)C(N)=O)[C@@H](C)O)NC(=O)[C@H](Cc2c[nH]c3ccccc23)NC(=O)[C@H](Cc2ccc(O)cc2)NC(=O)[C@H](Cc2c[nH]cn2)NC1=O)[C@@H](C)O` [Peptide 11] (I: Ac-ETFCHYWCQLTS[AEEA]K(X1)-NH2 / II: cyclo([2Nal]R[dR]R[dR]E[dF]); linker I:4-I:8-II:6 via X2), the “fold decrease of MDM2 binding affinity” value amounted to 6 fold.
